The record followed here is patent publication US10611730B2, “Benzimidazolone and benzothiazolone compounds and their use as AMPA receptor modulators” (Janssen Pharmaceutica NV, priority 2015, dated 2020).

Molecules are shown by their SMILES.

Experiment [1] has as its system endogenous γ 8-containing AMPA receptor currents. The experiment can be described thus: Whole-cell electrophysiology on acutely-dissociated mouse hippocampal neurons. In kind it is cell-based. As to conditions: 10 mM glutamate, 500 ms, held at −60 mV. How it is done: The effects of selected compounds upon endogenous γ 8-containing AMPA receptor currents was evaluated using whole-cell electrophysiology on acutely-dissociated mouse hippocampal neurons. Hippocampus was chosen for this assay, since CACNG8 (the protein encoded by this gene is a type I transmembrane AMPA receptor regulatory protein i.e., TARP) is preferentially enriched in this brain region (Tomita et al. (2003). “Functional studies and distribution define a family of transmembrane AMPA receptor regulatory proteins.” J Cell Biol 161(4): 805-816.2003).
Hippocampi were dissected from C57black6 mice at 4-12 weeks postnatal, following the protocol described by Brewer (Brewer, G. J. (1997). “Isolation and culture of adult rat hippocampal neurons.” Journal of Neuroscience Methods 71(2): 143-155). The following is a brief summary of the procedure. Mice were asphyxiated with CO2 then decapitated. The brain was rapidly removed, then placed into ice-cold HABG medium. The recipe for HABG medium was: HibernateA supplemented with 2% B27 and 0.5 mM Glutamax (all reagents from Life Technologies). Hippocampi were micro-dissected from the brains, then washed with HABG without calcium (Hibernate A minus Calcium, BrainBits; 2% B27, Life Technologies; 0.5 mM glutamax, Life Technologies).
The hippocampi were then transferred to HABG without calcium, supplemented with 2 mg/mL papain (Worthington Biochemical). They were incubated at 30° C. on a roller for 40 min, then gently triturated with a fire-polished glass pipette. The supernatant containing dissociated neurons was collected, then centrifuged for 2 min at 200 g. The cell pellet was collected, and then resuspended in 8 mL of HABG. Live cells were counted, then plated onto 12 mm glass coverslips in HABG (2 mL) in 24-well plates at a density of 50-100 cells per coverslip. These cells were maintained at room temperature until use.
Whole-cell electrophysiology was performed using 1.5 mm diameter glass capillary tubes (World Precision Instruments TW150-4), pulled to a fine tip with a Sutter P-97 micropipette puller. The intracellular buffer was 90 mM KF, 30 mM KCl, 10 mM HEPES, and 5 mM EGTA, pH 7.4, 290 mOs. The extracellular buffer was 135 mM NaCl, 4 mM KCl, 2 mM CaCl2), 1 mM MgCl2, 5 mM glucose, 10 mM HEPES, pH 7.4, 300 mOs. The open-tip resistances of the micropipettes using these solutions were 2-4MΩ. Whole-cell recordings of neuron cell bodies were performed in voltage-clamp mode using an Axon Axopatch 200B amplifier. Whole-cell current was measured holding the interior of the cell at −60 mV, using a 5 kHz lowpass filter. The cells were continuously perfused through 7 mm square glass barrels using a solenoid-controlled solution switching device (Warner Instruments, PF-77B). The peak current in response to a 500 ms exposure to 10 mM glutamate every 5 seconds was measured, before and after exposure to test compound.
For analysis, the mean peak current of 5 traces in the presence of test compound was divided by the mean peak current of 5 traces prior to the addition of test compound. Compounds were tested at concentrations at least ten times higher than their estimated potency in the calcium flux assay, in order to ensure near-saturating occupancy of the receptor.
The table below summarizes the results of this electrophysiological assay. Peak current (% control) is mean of the peak response to glutamate in the presence of the indicated compound, normalized to the peak response to glutamate in the absence of test compound. N is the number of neurons tested. The compounds were tested at concentrations noted below in Table 5. At the said tested concentrations, the peak response to glutamate was reduced compared to controls for all tested compounds.

Experiment [2] concerns the target TARP γ8 dependent AMPA receptor (GluA1o-g8 fusion channel) (Homo sapiens (Human), UniProt P42261+Q8WXS5). The experiment can be described thus: Calcium flux assay (FLIPR), HEK293 cells expressing GRIA1o-CACNG8 fusion. Format: cell-based. The note with it: inhibition of calcium flux after 15 μM glutamate; for IC50: read-out: GluR1-γ8 pIC50 (converted). The method, boiled down:
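Stable HEK293 clone expressing GluA1o-γ8 fusion (1:1 stoichiometry), loaded with Calcium-5/6 dye plus test compound; glutamate-evoked fluorescence normalized to control wells. Concentration-response fitted to four-parameter logistic, midpoint taken as inhibitory potency.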

Chain of TARP γ8 dependent AMPA receptor (GluA1o-g8 fusion channel) (P42261 other isoform, or with tags, fused parts or gaps): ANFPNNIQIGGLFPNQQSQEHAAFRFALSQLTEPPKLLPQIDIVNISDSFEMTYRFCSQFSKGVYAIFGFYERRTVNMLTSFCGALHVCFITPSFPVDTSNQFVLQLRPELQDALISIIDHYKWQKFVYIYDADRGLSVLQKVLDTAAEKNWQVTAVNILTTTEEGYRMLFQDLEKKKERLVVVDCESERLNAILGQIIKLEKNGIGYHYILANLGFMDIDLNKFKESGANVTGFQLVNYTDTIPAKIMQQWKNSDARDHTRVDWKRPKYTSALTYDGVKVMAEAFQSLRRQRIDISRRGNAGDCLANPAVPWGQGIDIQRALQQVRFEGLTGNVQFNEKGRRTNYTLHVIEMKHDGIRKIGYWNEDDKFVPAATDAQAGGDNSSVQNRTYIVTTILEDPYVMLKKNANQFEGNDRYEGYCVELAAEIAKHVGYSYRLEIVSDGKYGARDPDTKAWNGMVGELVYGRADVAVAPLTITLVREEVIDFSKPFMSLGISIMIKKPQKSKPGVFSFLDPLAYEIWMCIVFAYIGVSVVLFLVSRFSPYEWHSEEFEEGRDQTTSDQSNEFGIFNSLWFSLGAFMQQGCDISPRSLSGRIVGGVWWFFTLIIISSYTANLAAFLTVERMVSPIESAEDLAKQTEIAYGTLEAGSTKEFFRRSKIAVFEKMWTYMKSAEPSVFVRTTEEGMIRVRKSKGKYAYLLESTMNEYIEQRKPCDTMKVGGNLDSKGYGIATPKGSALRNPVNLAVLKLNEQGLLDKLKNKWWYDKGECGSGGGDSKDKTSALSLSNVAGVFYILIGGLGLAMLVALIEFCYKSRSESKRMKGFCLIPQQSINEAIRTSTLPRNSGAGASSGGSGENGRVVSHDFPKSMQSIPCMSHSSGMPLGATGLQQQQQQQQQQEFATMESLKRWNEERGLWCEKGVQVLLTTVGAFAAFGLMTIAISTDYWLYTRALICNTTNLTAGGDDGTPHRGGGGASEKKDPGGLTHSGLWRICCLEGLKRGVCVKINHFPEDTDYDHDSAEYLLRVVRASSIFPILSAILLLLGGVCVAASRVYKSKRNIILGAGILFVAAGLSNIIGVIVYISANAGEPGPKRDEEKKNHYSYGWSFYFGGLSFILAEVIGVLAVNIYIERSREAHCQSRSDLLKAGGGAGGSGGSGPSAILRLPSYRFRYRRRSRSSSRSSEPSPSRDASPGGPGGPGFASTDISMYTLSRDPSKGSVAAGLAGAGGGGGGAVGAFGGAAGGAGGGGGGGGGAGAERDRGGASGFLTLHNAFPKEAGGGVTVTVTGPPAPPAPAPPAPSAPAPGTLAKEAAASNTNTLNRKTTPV

On to `O=c1[nH]c2ccc(-c3c(Cl)cccc3OC(F)(F)F)cc2[nH]1` [Example 31, 5-[2-Chloro-6-(trifluoromethoxy)phenyl]-1,3-dihydrobenzimidazol-2-one], for which the “peak current (% control)” value in experiment [1] (1 μM compound) was 61%.

With `Cc1cccc(Cl)c1-c1ccc2[nH]c(=O)[nH]c2c1` [Example 36, 5-(2-Chloro-6-methyl-phenyl)-1,3-dihydrobenzimidazol-2-one], the IC50 in experiment [2] was 63.1 nM. For the same molecule, in experiment [1] (1 μM compound), the “peak current (% control)” value came to 72%.

For `N#CCc1cccc(OC(F)(F)F)c1-c1ccc2[nH]c(=O)[nH]c2c1` [Example 123], the IC50 in experiment [2] was 15.8 nM. In addition, in experiment [1] (1 μM compound), the “peak current (% control)” value was determined as 59%.

For `Cc1cccc(C)c1-c1ccc2[nH]c(=O)[nH]c2c1` [Example 2, 5-(2,6-Dimethylphenyl)-1,3-dihydrobenzimidazol-2-one], in experiment [2], the “GluR1-γ8 pIC50” value is listed as 6.8. For the same molecule, in experiment [1] (10 μM compound), the “peak current (% control)” value was determined as 70%.

For the molecule `O=c1[nH]c2ccc(-c3c(Cl)ccc(Cl)c3Cl)cc2[nH]1` [Example 66, 5-(2,3,6-Trichlorophenyl)-1,3-dihydrobenzimidazol-2-one], the IC50 in experiment [2] was 10 nM. For the same molecule, the “peak current (% control)” value in experiment [1] (1 μM compound) amounted to 86%.

As for `N#CCc1cccc(Cl)c1-c1ccc2[nH]c(=O)[nH]c2c1` [Example 124, 2-[3-Chloro-2-(2-oxo-1,3-dihydrobenzimidazol-5-yl)phenyl]acetonitrile], the IC50 in experiment [2] was 12.6 nM. Further, the “peak current (% control)” value in experiment [1] (1 μM compound) is given as 63%.

Take `COc1cccc(OCC(C)C)c1-c1ccc2[nH]c(=O)[nH]c2c1` [Example 14, 5-(2-Isobutoxy-6-methoxy-phenyl)-1,3-dihydrobenzimidazol-2-one]: the IC50 in experiment [2] is 31.6 nM. Also, the “peak current (% control)” value in experiment [1] (1 μM compound) was 69%.

As to `COc1cccc(OCC(F)F)c1-c1ccc2[nH]c(=O)[nH]c2c1` [Example 102, 5-[2-(2,2-Difluoroethoxy)-6-methoxy-phenyl]-1,3-dihydrobenzimidazol-2-one], the IC50 in experiment [2] is 398 nM.

Consider `COc1cccc(OCC(C)(C)C)c1-c1ccc2[nH]c(=O)[nH]c2c1` [Example 104, 5-[2-(2,2-Dimethylpropoxy)-6-methoxy-phenyl]-1,3-dihydrobenzimidazol-2-one], for which, in experiment [2], the IC50 was 100 nM.

Take `C[C@@H](Oc1cccc(Cl)c1-c1ccc2[nH]c(=O)[nH]c2c1)C(F)(F)F` (single isomer, unassigned) [Example 119, (R*)-5-[2-Chloro-6-(2,2,2-trifluoro-1-methyl-ethoxy)phenyl]-1,3-dihydrobenzimidazol-2-one]: the IC50 in experiment [2] is 50.1 nM.

As for `O=c1[nH]c2ccc(-c3c(Cl)cccc3OCC(F)F)cc2[nH]1` [Example 96, 5-[2-Chloro-6-(2,2-difluoroethoxy)phenyl]-1,3-dihydrobenzimidazol-2-one], the IC50 in experiment [2] was 63.1 nM.

For the molecule `Cc1c(CN2CCCCC2)cccc1-c1ccc2[nH]c(=O)[nH]c2c1` [Example 147, 5-[2-Methyl-3-(1-piperidylmethyl)phenyl]-1,3-dihydrobenzimidazol-2-one], the IC50 in experiment [2] is 1580 nM.

`O=c1[nH]c2ccc(-c3c(Cl)cccc3NCc3ccco3)cc2[nH]1` [Example 86, 5-[2-Chloro-6-(2-furylmethylamino)phenyl]-1,3-dihydrobenzimidazol-2-one]: the IC50 in experiment [2] is 158 nM.

As to `Cc1ccc(Cl)c(-c2ccc3[nH]c(=O)[nH]c3c2)c1Cl` [Example 23, 5-(2,6-Dichloro-3-methyl-phenyl)-1,3-dihydrobenzimidazol-2-one], the IC50 in experiment [2] was 15.8 nM.

In the case of `O=c1[nH]c2cc(-c3c(Cl)cccc3OC(F)(F)F)cc(F)c2[nH]1` [Example 214, 6-(2-chloro-6-(trifluoromethoxy)phenyl)-4-fluoro-1,3-dihydro-2H-benzo[d]imidazol-2-one], the IC50 in experiment [2] is 2.51 nM.

Consider `COC(=O)c1cccc(-c2ccc3[nH]c(=O)[nH]c3c2)c1OC` [Example 48, Methyl 2-methoxy-3-(2-oxo-1,3-dihydrobenzimidazol-5-yl)benzoate], for which the IC50 in experiment [2] was 6310 nM.

As for `CC(C)Oc1cccc(OC(C)C)c1-c1ccc2[nH]c(=O)[nH]c2c1` [Example 107, 5-(2,6-Diisopropoxyphenyl)-1,3-dihydrobenzimidazol-2-one], the IC50 in experiment [2] is 63.1 nM.

For the molecule `O=C(c1ccc(Cl)c(-c2ccc3[nH]c(=O)[nH]c3c2)c1)N1CCCC1` [Example 84, 5-[2-Chloro-5-(pyrrolidine-1-carbonyl)phenyl]-1,3-dihydrobenzimidazol-2-one], the IC50 in experiment [2] is 7940 nM.

On to `Cc1c(-c2ccc3[nH]c(=O)[nH]c3c2)cccc1-c1ncon1` [Example 206, 5-[2-Methyl-3-(1,2,4-oxadiazol-3-yl)phenyl]-1,3-dihydrobenzimidazol-2-one], for which the IC50 in experiment [2] is 31.6 nM.

Consider `CC(C)(C)COc1cccc(Cl)c1-c1ccc2[nH]c(=O)[nH]c2c1` [Example 98, 5-[2-Chloro-6-(2,2-dimethylpropoxy)phenyl]-1,3-dihydrobenzimidazol-2-one], for which the IC50 in experiment [2] was 50.1 nM.

As for `Cc1ccnc(Cl)c1-c1ccc2[nH]c(=O)[nH]c2c1` [Example 70, 5-(2-Chloro-4-methyl-3-pyridyl)-1,3-dihydrobenzimidazol-2-one], in experiment [2], the IC50 was 794 nM.

In the case of `O=c1[nH]c2ccc(-c3ccccc3Cc3ccccc3)cc2[nH]1` [Example 59, 5-(2-Benzylphenyl)-1,3-dihydrobenzimidazol-2-one], the IC50 in experiment [2] is 316 nM.

For `O=c1[nH]c2ccc(-c3c(Cl)cccc3C3CC3)cc2[nH]1` [Example 160, 5-(2-Chloro-6-cyclopropyl-phenyl)-1,3-dihydrobenzimidazol-2-one], the “GluR1-γ8 pIC50” value in experiment [2] was 8.2. In addition, in experiment [1] (1 μM compound), the “peak current (% control)” value stood at 70%.

As for `Cc1c(-c2ccc3[nH]c(=O)[nH]c3c2)cccc1-c1nnco1` [Example 194, 5-[2-Methyl-3-(1,3,4-oxadiazol-2-yl)phenyl]-1,3-dihydrobenzimidazol-2-one], the IC50 in experiment [2] is 501 nM.

For the molecule `N#Cc1cccc(Cl)c1-c1ccc2[nH]c(=O)[nH]c2c1` [Example 56, 3-Chloro-2-(2-oxo-1,3-dihydrobenzimidazol-5-yl)benzonitrile], the IC50 in experiment [2] is 631 nM.

Take `O=c1[nH]c2ccc(-c3cccc(N4CCCCC4)c3Cl)cc2[nH]1` [Example 188, 5-[2-Chloro-3-(1-piperidyl)phenyl]-1,3-dihydrobenzimidazol-2-one]: in experiment [2], the IC50 is 12.6 nM.

Turning to `CC(Oc1cccc(Cl)c1-c1ccc2[nH]c(=O)[nH]c2c1)C(F)(F)F` (racemic) [Example 118, (±)-5-[2-Chloro-6-(2,2,2-trifluoro-1-methyl-ethoxy)phenyl]-1,3-dihydrobenzimidazol-2-one], in experiment [2], the IC50 is 31.6 nM.
